# Data: US11685732B2, “MYST family histone acetyltransferase inhibitors” (Epizyme, Inc., priority 2017, dated 2023)
# Columns and labels:
# KAT-5 = KAT-5 (Homo sapiens (Human), UniProt Q92993); assay: KAT-5 biochemical inhibition assay (SAMDI mass spectrometry)
# In short: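 Acetylation of 1 μM peptide by 9 nM enzyme with 0.5 μM acetyl-CoA (final) was run 90 min at 25° C in Tris pH 8.0 buffer with DTT, after compound preincubation at 2% DMSO. Formic acid stopped the reaction, and product was quantified by SAMDI mass spectrometry to derive IC50.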
# KAT-6A = KAT-6A (Homo sapiens (Human), UniProt Q92794); assay: KAT-6A biochemical inhibition assay (SAMDI mass spectrometry)
# In short: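 IC50 values came from SAMDI time-of-flight mass spectrometry after formic acid quench (0.5% final). Acetylation ran 90 min at 25 °C with 1 μM acetyl coenzyme A and 1 μM peptide substrate, following compound pre-incubation with 12.5 nM KAT-6A in Tris buffer pH 8.0 containing DTT, 2% DMSO final.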
# KAT-7 = KAT-7 (Homo sapiens (Human), UniProt O95251); assay: KAT-7 biochemical inhibition assay (SAMDI mass spectrometry)
# In short: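 Read-out was SAMDI time-of-flight MS of formic acid-quenched reactions (0.5% final). Compound dilutions (2% DMSO final) were pre-incubated with 6 nM KAT-7 in 50 mM Tris pH 8.0 with 1 mM DTT, then given 1 μM peptide substrate and 2 μM acetyl-CoA for 120 min at 25 °C. IC50 values were derived.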
# KAT-8 = KAT-8 (Homo sapiens (Human), UniProt Q9H7Z6); assay: KAT-8 biochemical inhibition assay (SAMDI mass spectrometry)
# In short: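 Acetylation of 1 μM peptide substrate with 5 μM acetyl-CoA by 12.5 nM enzyme, compound pre-incubated, 2% DMSO, Tris pH 8.0 buffer with DTT, 25 °C for 90 min. Quench with 0.5% formic acid; product read by SAMDI mass spectrometry to give IC50.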
# KAT-8, sequence (Q9H7Z6 other isoform, or with tags, fused parts or gaps): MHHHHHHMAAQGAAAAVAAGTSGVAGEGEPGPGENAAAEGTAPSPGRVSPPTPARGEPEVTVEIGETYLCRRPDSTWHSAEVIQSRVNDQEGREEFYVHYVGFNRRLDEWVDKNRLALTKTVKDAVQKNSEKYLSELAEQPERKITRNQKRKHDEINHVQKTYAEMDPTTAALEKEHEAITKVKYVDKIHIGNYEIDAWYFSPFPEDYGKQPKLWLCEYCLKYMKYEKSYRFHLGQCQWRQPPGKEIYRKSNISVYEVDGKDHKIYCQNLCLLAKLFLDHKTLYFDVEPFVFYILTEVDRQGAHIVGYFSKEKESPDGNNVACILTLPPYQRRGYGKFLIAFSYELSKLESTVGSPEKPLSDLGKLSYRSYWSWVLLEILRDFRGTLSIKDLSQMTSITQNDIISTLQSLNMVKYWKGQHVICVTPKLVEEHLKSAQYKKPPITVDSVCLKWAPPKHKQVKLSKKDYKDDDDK
# KAT-6A, sequence (Q92794 other isoform, or with tags, fused parts or gaps): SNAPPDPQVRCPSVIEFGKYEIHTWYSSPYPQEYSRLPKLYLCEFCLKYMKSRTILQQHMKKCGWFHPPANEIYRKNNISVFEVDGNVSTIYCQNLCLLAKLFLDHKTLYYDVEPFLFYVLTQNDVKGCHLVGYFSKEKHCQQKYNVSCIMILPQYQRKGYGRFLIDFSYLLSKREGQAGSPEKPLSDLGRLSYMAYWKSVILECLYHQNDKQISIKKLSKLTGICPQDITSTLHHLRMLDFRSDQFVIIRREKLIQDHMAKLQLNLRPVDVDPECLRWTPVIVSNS
# KAT-5, sequence (Q92993 other isoform, or with tags, fused parts or gaps): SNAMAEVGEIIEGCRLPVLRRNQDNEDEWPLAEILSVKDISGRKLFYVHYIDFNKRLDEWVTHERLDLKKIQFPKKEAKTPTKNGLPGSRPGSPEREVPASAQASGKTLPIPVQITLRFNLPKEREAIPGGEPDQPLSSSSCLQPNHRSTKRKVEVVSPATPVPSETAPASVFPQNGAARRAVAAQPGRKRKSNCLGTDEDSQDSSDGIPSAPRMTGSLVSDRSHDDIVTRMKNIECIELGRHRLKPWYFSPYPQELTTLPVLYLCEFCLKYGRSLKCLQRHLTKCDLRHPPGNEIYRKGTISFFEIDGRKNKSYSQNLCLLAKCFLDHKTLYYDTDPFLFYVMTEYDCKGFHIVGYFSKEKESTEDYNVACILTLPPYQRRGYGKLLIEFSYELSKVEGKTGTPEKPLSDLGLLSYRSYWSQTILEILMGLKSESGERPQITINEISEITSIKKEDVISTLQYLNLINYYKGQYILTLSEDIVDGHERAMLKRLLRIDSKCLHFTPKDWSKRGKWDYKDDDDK
# KAT-7, sequence (O95251 other isoform, or with tags, fused parts or gaps): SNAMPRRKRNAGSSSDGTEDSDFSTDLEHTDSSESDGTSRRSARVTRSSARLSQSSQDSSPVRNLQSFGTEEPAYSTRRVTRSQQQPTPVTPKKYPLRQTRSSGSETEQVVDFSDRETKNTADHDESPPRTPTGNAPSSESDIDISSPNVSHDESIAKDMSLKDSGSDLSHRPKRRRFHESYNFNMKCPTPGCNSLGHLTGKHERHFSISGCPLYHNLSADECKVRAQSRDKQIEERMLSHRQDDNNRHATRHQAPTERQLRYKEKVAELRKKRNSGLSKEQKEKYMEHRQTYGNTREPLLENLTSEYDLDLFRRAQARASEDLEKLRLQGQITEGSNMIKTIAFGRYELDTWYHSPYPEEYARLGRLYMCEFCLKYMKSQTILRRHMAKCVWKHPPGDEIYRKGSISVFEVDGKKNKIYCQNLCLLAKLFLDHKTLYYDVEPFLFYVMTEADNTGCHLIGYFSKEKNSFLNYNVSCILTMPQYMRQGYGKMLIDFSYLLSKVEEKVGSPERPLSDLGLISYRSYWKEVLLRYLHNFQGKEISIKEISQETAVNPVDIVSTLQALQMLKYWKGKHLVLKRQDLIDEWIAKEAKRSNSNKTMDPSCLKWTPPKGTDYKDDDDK
IC50 (KAT-5),IC50 (KAT-6A),IC50 (KAT-7),IC50 (KAT-8),SMILES
< 10 µM,< 10 µM,< 10 µM,10 to 50 µM,COc1ccc(CN(C)C(=O)N2CC(CS(=O)(=O)NNC(=O)c3cc(-c4cn(C)cn4)cc(Cl)c3F)C2)cc1 [Compound I-202]
< 10 µM,< 10 µM,< 10 µM,10 to 50 µM,Cn1cnc(-c2cc(Cl)c(F)c(C(=O)NNS(=O)(=O)CC3CCC(F)(F)CC3)c2)c1 [Compound I-262]
10 to 50 µM,10 to 50 µM,< 10 µM,10 to 50 µM,COCCn1nc(-c2cc(Cl)c(F)c(C(=O)NNS(=O)(=O)CC3CCCCC3)c2)cc1C [Compound I-233]
< 10 µM,< 10 µM,< 10 µM,10 to 50 µM,Cn1cnc(-c2cc(Cl)c(F)c(C(=O)NNS(=O)(=O)c3nccs3)c2)c1 [Compound I-227]
< 10 µM,< 10 µM,< 10 µM,10 to 50 µM,Cn1cnc(-c2cc(Cl)c(F)c(C(=O)NNS(=O)(=O)C[C@H]3CC[C@H](NC(=O)c4ccccc4)CC3)c2)c1 [Compound I-240]
< 10 µM,< 10 µM,< 10 µM,50 to 100 µM,Cn1ccc(-c2cc(Cl)c(F)c(C(=O)NNS(=O)(=O)CC3CCCCC3)c2)n1 [Compound I-4]
10 to 50 µM,10 to 50 µM,< 10 µM,> 100 µM,Cc1cc(-c2cn(C)cn2)cc(C(=O)NNS(=O)(=O)C2CCOCC2)c1F [Compound I-131]
< 10 µM,< 10 µM,< 10 µM,10 to 50 µM,CN(C(=O)OC(C)(C)C)C1CCC(CS(=O)(=O)NNC(=O)c2cc(-c3cn(C)cn3)cc(Cl)c2F)CC1 (stereo not drawn) [Compound I-296]
< 10 µM,< 10 µM,< 10 µM,10 to 50 µM,Cn1cnc(-c2cc(Cl)c(F)c(C(=O)NNS(=O)(=O)C[C@H]3CCC[C@H](OCc4ccccc4)C3)c2)c1 [Compound I-288]
< 10 µM,< 10 µM,< 10 µM,10 to 50 µM,CCC(=O)NC1CCCC(CS(=O)(=O)NNC(=O)c2cc(-c3cn(C)cn3)cc(Cl)c2F)C1 (stereo not drawn) [Compound I-199]
< 10 µM,< 10 µM,< 10 µM,10 to 50 µM,COc1ccc(CNC(=O)N2CC(CS(=O)(=O)NNC(=O)c3cc(-c4cn(C)cn4)cc(Cl)c3F)C2)cc1 [Compound I-203]
< 10 µM,< 10 µM,< 10 µM,10 to 50 µM,CN(C)C(=O)NC1CCCC(CS(=O)(=O)NNC(=O)c2cc(-c3cn(C)cn3)cc(Cl)c2F)C1 (stereo not drawn) [Compound I-104]
< 10 µM,< 10 µM,< 10 µM,10 to 50 µM,Cn1cnc(-c2cc(Cl)c(F)c(C(=O)NNS(=O)(=O)CC3CCCC(NC(=O)c4ccncc4)C3)c2)c1 (stereo not drawn) [Compound I-238]
< 10 µM,< 10 µM,< 10 µM,10 to 50 µM,Cn1cnc(-c2cc(Cl)c(F)c(C(=O)NNS(=O)(=O)CC3CCN(S(=O)(=O)C4CC4)C3)c2)c1 (stereo not drawn) [Compound I-84]
< 10 µM,< 10 µM,< 10 µM,10 to 50 µM,CC(=O)Nc1cccc(S(=O)(=O)NNC(=O)c2cc(-c3cn(C)cn3)cc(Cl)c2F)c1 [Compound I-367]
< 10 µM,< 10 µM,< 10 µM,10 to 50 µM,CCNC(=O)N[C@H]1CC[C@H](CS(=O)(=O)NNC(=O)c2cc(-c3cn(C)cn3)cc(Cl)c2F)CC1 [Compound I-109]
10 to 50 µM,10 to 50 µM,< 10 µM,10 to 50 µM,CCC1CC(CS(=O)(=O)NNC(=O)c2cc(-c3cn(C)cn3)cc(Cl)c2F)CC1=O (stereo not drawn) [Compound I-255]
10 to 50 µM,10 to 50 µM,< 10 µM,10 to 50 µM,Cn1cnc(-c2cc(Cl)c(F)c(C(=O)NNS(=O)(=O)CC3CCCC(N)C3)c2)c1 (stereo not drawn) [Compound I-103]
< 10 µM,< 10 µM,< 10 µM,10 to 50 µM,Cn1cnc(-c2cc(Cl)c(F)c(C(=O)NNS(=O)(=O)CC3CC4CCC(C3)O4)c2)c1 (stereo not drawn) [Compound I-242]
< 10 µM,< 10 µM,< 10 µM,> 100 µM,CC(=O)N1CCCC(CS(=O)(=O)NNC(=O)c2cc(-c3cn(C)cn3)cc(C)c2F)C1 (stereo not drawn) [Compound I-142]
< 10 µM,10 to 50 µM,< 10 µM,10 to 50 µM,CCN(C)C(=O)NC1CCC(CS(=O)(=O)NNC(=O)c2cc(-c3cn(C)cn3)cc(Cl)c2F)C1 (stereo not drawn) [Compound I-291]

IC50 (KAT-5),IC50 (KAT-6A),IC50 (KAT-7),IC50 (KAT-8),SMILES
< 10 µM,< 10 µM,< 10 µM,10 to 50 µM,CCOC1CCC(CS(=O)(=O)NNC(=O)c2cc(-c3cn(C)cn3)cc(Cl)c2F)CC1 (stereo not drawn) [Compound I-347]
< 10 µM,< 10 µM,< 10 µM,10 to 50 µM,COCCNC(=O)N1CCCC(CS(=O)(=O)NNC(=O)c2cc(-c3cn(C)cn3)cc(Cl)c2F)C1 (stereo not drawn) [Compound I-217]
> 100 µM,10 to 50 µM,< 10 µM,> 100 µM,Cn1cnc(-c2cc(Cl)c(F)c(C(=O)NNS(C)(=O)=O)c2)c1 [Compound I-22]
< 10 µM,< 10 µM,< 10 µM,10 to 50 µM,Cn1cnc(-c2cc(Cl)c(F)c(C(=O)NNS(=O)(=O)CC3CCCC(NC(=O)c4ccccn4)C3)c2)c1 (stereo not drawn) [Compound I-234]
< 10 µM,< 10 µM,< 10 µM,> 100 µM,Cn1cnc(-c2cc(Cl)c(F)c(C(=O)NNS(=O)(=O)CC3CCCN(C(=O)C4CCC4)C3)c2)c1 (stereo not drawn) [Compound I-13]
< 10 µM,< 10 µM,< 10 µM,10 to 50 µM,CNC(=O)NC1CCCC(CS(=O)(=O)NNC(=O)c2cc(-c3cn(C)cn3)cc(Cl)c2F)C1 (stereo not drawn) [Compound I-118]
< 10 µM,< 10 µM,< 10 µM,10 to 50 µM,Cn1cnc(-c2cc(Cl)c(F)c(C(=O)NNS(=O)(=O)CC3CCCC(NC(N)=O)C3)c2)c1 (stereo not drawn) [Compound I-115]
10 to 50 µM,10 to 50 µM,10 to 50 µM,10 to 50 µM,COCCc1c(-c2cc(Cl)c(F)c(C(=O)NNS(=O)(=O)CC3CCOCC3)c2)cnn1C [Compound I-373]
< 10 µM,10 to 50 µM,< 10 µM,> 100 µM,Cc1nc(-c2cc(Cl)c(F)c(C(=O)NNS(=O)(=O)C3CCCCC3)c2)cn1C [Compound I-26]
10 to 50 µM,10 to 50 µM,< 10 µM,10 to 50 µM,COCC(=O)N1CCC(CS(=O)(=O)NNC(=O)c2cc(-c3cn(C)cn3)cc(Cl)c2F)C1 (stereo not drawn) [Compound I-62]
10 to 50 µM,< 10 µM,< 10 µM,10 to 50 µM,Cn1cnc(-c2cc(Cl)c(F)c(C(=O)NNS(=O)(=O)CC3CN(C(=O)OC(C)(C)C)C3)c2)c1 [Compound I-95]
< 10 µM,< 10 µM,< 10 µM,> 100 µM,Cn1cnc(-c2cc(Cl)c(F)c(C(=O)NNS(=O)(=O)C[C@H]3CCCO3)c2)c1 [Compound I-388]
10 to 50 µM,10 to 50 µM,< 10 µM,10 to 50 µM,CC(=O)Nc1ccc(S(=O)(=O)NNC(=O)c2cc(-c3cn(C)cn3)cc(Cl)c2F)cc1 [Compound I-379]
< 10 µM,10 to 50 µM,< 10 µM,10 to 50 µM,CCNC(=O)N[C@H]1C[C@H](CS(=O)(=O)NNC(=O)c2cc(-c3cn(C)cn3)cc(Cl)c2F)C1 [Compound I-112]
10 to 50 µM,10 to 50 µM,< 10 µM,10 to 50 µM,Cn1cnc(-c2cc(Cl)c(F)c(C(=O)NNS(=O)(=O)C[C@H]3CC[C@H](N)CC3)c2)c1 [Compound I-93]
< 10 µM,< 10 µM,< 10 µM,> 100 µM,COCC(=O)N1CCCC(CS(=O)(=O)NNC(=O)c2cc(-c3cn(C)cn3)cc(C)c2F)C1 (stereo not drawn) [Compound I-141]
< 10 µM,< 10 µM,< 10 µM,10 to 50 µM,CN(C)C(=O)N(C)[C@H]1CC[C@H](CS(=O)(=O)NNC(=O)c2cc(-c3cn(C)cn3)cc(Cl)c2F)CC1 [Compound I-366]
10 to 50 µM,> 100 µM,< 10 µM,> 100 µM,CCn1cc(-c2cc(C)c(F)c(C(=O)NNS(=O)(=O)C3CCCCC3)c2)cn1 [Compound I-154]
< 10 µM,10 to 50 µM,< 10 µM,10 to 50 µM,COCCOc1ccc(S(=O)(=O)NNC(=O)c2cc(-c3cn(C)cn3)cc(Cl)c2F)cc1 [Compound I-369]
< 10 µM,< 10 µM,< 10 µM,10 to 50 µM,COCCNC(=O)N1CCC(CS(=O)(=O)NNC(=O)c2cc(-c3cn(C)cn3)cc(Cl)c2F)C1 (stereo not drawn) [Compound I-190]
10 to 50 µM,50 to 100 µM,< 10 µM,> 100 µM,Cn1cnc(-c2cc(Cl)c(F)c(C(=O)NNS(=O)(=O)C3CCCC3)c2)c1 [Compound I-15]
